Experimental data as given in US8222295B2, “Compositions comprising polyunsaturated fatty acid monoglycerides or derivatives thereof and uses thereof” (Centre de Recherche sur les Biotechnologies Marines, priority 2007, dated 2012).
≈ marks a conversion by molar mass, not a printed value. Values belong to the compound of their own block, whether it stands above or below them.

Assays:
[1] = system: PC-3 human prostate cancer cell line; experiment: in vitro cell viability assay (SRB) on PC-3; format: cell-based
Protocol: (§1) Five consecutive dilutions with a equal volume of DMSO was performed. […] Precipitation occur at high concentration of curcumin. […] Five consecutive dilutions with a equal volume of DMSO was performed. […] The cell viability assay is performed to measure the relative cell viability status of cancer cells upon exposure to test compounds in comparison to a positive control (etoposide) and a negative control (vehicule). Adherent cells growing in 96-well plates are exposed to test compounds for 3 days (72 hours). […] All conditions are tested in triplicate. […] After the incubation time, total protein content is quantified following staining with the anionic dye sulforhodamine B (SRB). The detection of luminescence, emitted by SRB, is completed by a microplate reader. This method of detection is based upon works published by Monks et al., in Journal of the National Cancer Institute vol. 82 no. […] The amount of luminescence is directly proportional to the number of living cells in culture. […] Cells were trypsinized using 0.25% trypsine (w/v)/0.53 mM EDTA solution (Hyclone), counted and plated at densities between 1000 and 3000 cells per well in flat bottom 96-well clear plates (Becton Dickinson) in 100 μl of appropriate culture medium supplemented with fetal bovine serum (Hyclone). […] Absorbance was read at 515 nm using a 96-well plate Multiskan Spectrum luminescence reader (Thermo Electron Corporation). […]

[2] = system: A-549 human lung cancer cell line; experiment: in vitro cell viability assay (SRB) on A-549; format: cell-based
Protocol: as §1

[3] = system: HCT-15 human colon cancer cell line; experiment: in vitro cell viability assay (SRB) on HCT-15; format: cell-based
Protocol: as §1

[4] = system: human monocyte THP-1 cells; experiment: LPS-induced TNF-α release by monocyte cells (ELISA); format: cell-based; details: 100 ng/ml of LPS, 4 hours, composition 3 10 μg/ml, curcumin 5 μg/ml
Protocol: Composition 3 (comprising compounds 1 and 5) at final concentration of 10 μg/ml, curcumin (5 μg/ml) and a 1:1 mixture of composition 3 ([…]) and curcumin (5 μg/ml) in DMSO (1%) was used for the in vitro assay. Composition 3 prepared according to the same procedure as previously described in Example 2)
The in vitro assay allows evaluation of the potential anti-inflammatory effects of compounds on the induced-release of pro-inflammatory mediator by monocyte cells. Typical human monocyte THP-1 cells, involved in inflammatory processes, are used in this assay. Measurement of pro-inflammatory mediator TNF-α is performed by ELISA (manufactured by R&D Systems) with artificial induction of pro-inflammatory agents by LPS (E. Coli 055:B5) during 4 hours. Known anti-inflammatory agent dexametazone was used as positive control.

[5] = human, in vivo
Protocol: The volunteer fasted for 12 hours prior to the study. […] Controlled amount of boiled pasta was eaten after the 4 h time point. An initial blood sample (400 μl) was collected using a lancet at a fingertip into heparin tubes followed by samples at 1, 2, 3, 4, 5, 6, 7 and 8 hour after ingestion. Plasma was separated and immediately analysed for fatty acid composition.
The AUC (calculates area under the curve for concentration vs. time data) is calculated using linear trapezoidal rule. […] In this experiment, the doses are the same. […] The relative bioavailability of compound 1 and compound 5 is calculated with the same formula:

- IC50 ([1]; PC-3, 72 hours, SRB, concentration of the tested substance or composition, read-out: 50% growth inhibition concentration): ~75 µg/mL (≈ 204 µM)
- IC50 ([2]; A549, A-549, 72 hours, SRB, concentration of the tested substance or composition, read-out: 50% growth inhibition concentration): ~100 µg/mL (≈ 271 µM)
- IC50 ([3]; HCT-15, 72 hours, SRB, concentration of the tested substance or composition, read-out: 50% growth inhibition concentration): ~100 µg/mL (≈ 271 µM)
SMILES: COc1cc(/C=C/C(=O)CC(=O)/C=C/c2ccc(O)c(OC)c2)ccc1O [curcumin]
- TNF-α measured [4]: 100 µg/mL

SMILES: C[C@@H]1C[C@H]2[C@@H]3CCC4=CC(=O)C=C[C@]4(C)[C@@]3(F)[C@@H](O)C[C@]2(C)[C@@]1(O)C(=O)CO [dexametazone]
- TNF-α measured [4]: 125 µg/mL

SMILES: COc1cc([C@@H]2c3cc4c(cc3[C@@H](O[C@@H]3O[C@@H]5CO[C@@H](C)O[C@H]5[C@H](O)[C@H]3O)[C@H]3COC(=O)[C@H]23)OCO4)cc(OC)c1O [etoposide]
- inhibition at 294 µg/mL ([1]; PC-3, positive control at 294 μg/ml, read-out: growth inhibition): 100%
- inhibition at 294 µg/mL ([2]; A549, A-549, positive control at 294 μg/ml, read-out: growth inhibition): 100%
- inhibition at 294 µg/mL ([3]; HCT-15, positive control at 294 μg/ml, read-out: growth inhibition): 100%

- relative bioavailability of compound 1 compared to compound 5 [5]: 2.20
SMILES: CC/C=C\C/C=C\C/C=C\C/C=C\C/C=C\CCCCCC(=O)OCC(O)CO (stereo not drawn) [compound 1]
